# US8247211B2, “Glycopeptide antibiotics” (American Cyanamid Company, priority 2001, dated 2012)
# Tests used:
# Assay in all cases: In vitro antibacterial evaluation: minimum inhibitory concentration (MIC), broth dilution method
# Assay type in all cases: cell-based
# Streptococcus sp. = conditions: broth dilution, 5×10^5 CFU/mL, 18 hours at 35° C.
# In short: (§1)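 Susceptibility determined by NCCLS-recommended broth dilution (M7-A2), Muller-Hinton II […]. Concentration span 64-0.06 μg/mL, inoculum 5×10^5 CFU/mL. Isolates include strains resistant to methicillin, penicillin and/or vancomycin.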
# Escherichia coli = conditions: 5×10^5 CFU/mL, 18 hours at 35° C.
# In short: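 Using Muller-Hinton II […] and an inoculum of 5×10^5 CFU/mL, antibiotic dilutions from 64 down to 0.06 μg/mL were tested following NCCLS M7-A2. The MIC is the lowest concentration inhibiting growth, including in methicillin-, penicillin- or vancomycin-resistant clinical isolates.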
# Staphylococcus sp. = conditions: for MIC Staphylococcus aureus (ATCC 29213): strain ATCC 29213; for MIC Staphylococcus aureus (GC 1131): strain GC 1131; for MIC Staphylococcus aureus (GC 3051): strain GC 3051; for MIC Staphylococcus aureus (GC 3053): strain GC 3053; for MIC Staphylococcus aureus (GC 4541): strain GC 4541; for MIC Staphylococcus aureus (GC 4542): strain GC 4542; for MIC Staphylococcus aureus-SMITH (GC 4543): strain GC 4543; for MIC Staphylococcus aureus (GC 4544): strain GC 4544; for MIC Staphylococcus aureus (GC 4545): strain GC 4545; for MIC Staphylococcus haemolyticus (GC 4546): strain GC 4546; for MIC Coagulase Negative Staphylococcus (GC 4547): strain GC 4547; for MIC Coagulase Negative Staphylococcus (GC 4548): strain GC 4548; for MIC Coagulase Negative Staphylococcus (GC 4549): strain GC 4549; for MIC Coagulase Negative Staphylococcus (GC 4551): strain GC 4551; for MIC Coagulase Negative Staphylococcus (GC 6257): strain GC 6257
# In short: as §1
# Enterococcus sp. = conditions: broth dilution, 5×10^5 CFU/mL, 18 hours at 35° C.
# In short: as §1
# [1] = broth dilution, 18 hours at 35° C.
smiles,measurement,setting,value
"CC(C)=CCCC1OCC2OC(OC3C(CO)OC(Oc4ccc(CC5NC(=O)C(C(C)c6ccccc6)NC(=O)CNC(=O)C(CO)NC(=O)C(C(O)C6CNC(=N)N6C6OC(CO)C(O)C(O)C6O)NC(=O)C(C(O)C6CNC(=N)N6)NC5=O)cc4)C(O)C3O)C(O)C(O)C2O1 (stereo not drawn) [Example 123, Cyclo[glycyl-β-methylphenylalanyl-O-[4-O-[4,6-O-[5-methylhex-4-en-1-ylidene)hexopyranosyl]hexopyranosyl]tyrosyl-3-[2-iminoimidazolidin-4-yl)seryl-3-(3-hexopyranosyl-2-iminoimidazolidin-4-yl)serylseryl]]",MIC Streptococcus agalactiae (GC 4564),Streptococcus sp.,2 µg/mL
same,MIC Streptococcus pneumoniae (GC 1894),Streptococcus sp.,1 µg/mL
same,MIC Streptococcus pneumoniae (GC 4565),Streptococcus sp.,2 µg/mL
same,MIC Streptococcus pneumonine (ATCC 6301),Streptococcus sp.,1 µg/mL
same,MIC Streptococcus pyogenes (GC 4563),Streptococcus sp.,0.5 µg/mL
same,MIC Escherichia coli (ATCC 25922),Escherichia coli,>64 µg/mL
same,MIC Escherichia coli (GC 4559),Escherichia coli,>64 µg/mL
same,MIC Escherichia coli (GC 4560),Escherichia coli,8 µg/mL
same,MIC Staphylococcus aureus (ATCC 29213),Staphylococcus sp.,8 µg/mL
same,MIC Staphylococcus aureus (ATCC 29213),Staphylococcus sp.; [1],8 µg/mL
same,MIC Staphylococcus aureus (GC 1131),Staphylococcus sp.,8 µg/mL
same,MIC Staphylococcus aureus (GC 1131),Staphylococcus sp.; [1],8 µg/mL
same,MIC Staphylococcus aureus (GC 3051),Staphylococcus sp.,8 µg/mL
same,MIC Staphylococcus aureus (GC 3051),Staphylococcus sp.; [1],8 µg/mL
same,MIC Staphylococcus aureus (GC 3053),Staphylococcus sp.,8 µg/mL
same,MIC Staphylococcus aureus (GC 3053),Staphylococcus sp.; [1],8 µg/mL
same,MIC Staphylococcus aureus (GC 4541),Staphylococcus sp.,4 µg/mL
same,MIC Staphylococcus aureus (GC 4541),Staphylococcus sp.; [1],4 µg/mL
same,MIC Staphylococcus aureus (GC 4542),Staphylococcus sp.,4 µg/mL
same,MIC Staphylococcus aureus (GC 4542),Staphylococcus sp.; [1],4 µg/mL
same,MIC Staphylococcus aureus-SMITH (GC 4543),Staphylococcus sp.; 18 hours at 35° C.,4 µg/mL
same,MIC Staphylococcus aureus-SMITH (GC 4543),Staphylococcus sp.; [1],4 µg/mL
same,MIC Staphylococcus aureus (GC 4544),Staphylococcus sp.,8 µg/mL
same,MIC Staphylococcus aureus (GC 4544),Staphylococcus sp.; [1],8 µg/mL
same,MIC Staphylococcus aureus (GC 4545),Staphylococcus sp.,8 µg/mL
same,MIC Staphylococcus aureus (GC 4545),Staphylococcus sp.; [1],8 µg/mL
same,MIC Staphylococcus haemolyticus (GC 4546),Staphylococcus sp.,8 µg/mL
same,MIC Staphylococcus haemolyticus (GC 4546),Staphylococcus sp.; [1],8 µg/mL
same,MIC Coagulase Negative Staphylococcus (GC 4547),Staphylococcus sp.,8 µg/mL
same,MIC Coagulase Negative Staphylococcus (GC 4547),Staphylococcus sp.; [1],8 µg/mL
same,MIC Coagulase Negative Staphylococcus (GC 4548),Staphylococcus sp.,4 µg/mL
same,MIC Coagulase Negative Staphylococcus (GC 4548),Staphylococcus sp.; [1],4 µg/mL
same,MIC Coagulase Negative Staphylococcus (GC 4549),Staphylococcus sp.,4 µg/mL
same,MIC Coagulase Negative Staphylococcus (GC 4549),Staphylococcus sp.; [1],4 µg/mL
same,MIC Coagulase Negative Staphylococcus (GC 4551),Staphylococcus sp.,8 µg/mL
same,MIC Coagulase Negative Staphylococcus (GC 4551),Staphylococcus sp.; [1],8 µg/mL
same,MIC Coagulase Negative Staphylococcus (GC 6257),Staphylococcus sp.,4 µg/mL
same,MIC Coagulase Negative Staphylococcus (GC 6257),Staphylococcus sp.; [1],4 µg/mL
same,MIC Enterococccus avium (GC 4558),Enterococcus sp.,16 µg/mL
same,MIC Enterococccus faecalis (ATCC 29212),Enterococcus sp.,8 µg/mL
same,MIC Enterococccus faecalis (GC 2691),Enterococcus sp.,16 µg/mL
same,MIC Enterococccus faecalis (GC 3059),Enterococcus sp.,16 µg/mL
same,MIC Enterococccus faecalis (GC 4552),Enterococcus sp.,8 µg/mL
same,MIC Enterococccus faecalis (GC 4553),Enterococcus sp.,16 µg/mL
same,MIC Enterococccus faecalis (GC 4554),Enterococcus sp.,16 µg/mL
same,MIC Enterococccus faecalis (GC 6189),Enterococcus sp.,8 µg/mL
same,MIC Enterococccus faecium (GC 2243),Enterococcus sp.,8 µg/mL
same,MIC Enterococccus faecium (GC 4556),Enterococcus sp.,8 µg/mL
same,MIC Enterococccus faecium (GC 4557),Enterococcus sp.,8 µg/mL
same,MIC Enterococcus faecalis (GC 2242),Enterococcus sp.,8 µg/mL
